In patent publication US20070275968A1, “Substituted Biphenyl Derivative” (priority 2004, published 2007):

Row | SMILES | melting point [°C]
1 | Cc1cccc(-c2n[nH]cc2-c2ccc(F)c(-c3ccc(C(C)(O)CF)cn3)c2)n1 (stereo not shown) [Example 163, 1-Fluoro-2-(6-{2-fluoro-5-[3-(6-methylpyridin-2-yl)-1H-pyrazol-4-yl]phenyl}pyridin-3-yl)propan-2-ol] | 174 to 176
2 | Cc1cccc(-c2n[nH]cc2-c2ccc(F)c(-c3ccc(C(C)(O)C(F)(F)F)cn3)c2)n1 (stereo not shown) [Example 164, 1,1,1-Trifluoro-2-(6-{2-fluoro-5-[3-(6-methylpyridin-2-yl)-1H-pyrazol-4-yl]phenyl}pyridin-3-yl)propan-2-ol] | 197 to 198
3 | Cc1cccc(-c2n[nH]cc2-c2ccc(F)c(-c3ccc(C(C)O)cn3)c2)n1 (stereo not shown) [Example 165, 1-(6-{2-Fluoro-5-[3-(6-methylpyridin-2-yl)-1H-pyrazol-4-yl]phenyl}pyridin-3-yl)ethanol] | 149 to 151
4 | Cc1cccc(-c2n[nH]cc2-c2ccc(F)c(-c3ccc(OCCO)cn3)c2)n1 [Example 166, 2-[(6-{2-Fluoro-5-[3-(6-methylpyridin-2-yl)-1H-pyrazol-4-yl]phenyl}pyridin-3-yl)oxy]ethanol] | 148 to 151
5 | COC(C)(C)c1ccc(-c2cc(-c3c[nH]nc3-c3cccc(C)n3)ccc2F)nc1 [Example 173, 2-{2-Fluoro-5-[3-(6-methylpyridin-2-yl)-1H-pyrazol-4-yl]phenyl}-5-(1-methoxy-1-methylethyl)pyridine] | 168 to 169
6 | CCC(O)(CC)c1ccc(-c2cc(-c3c[nH]nc3-c3cccc(C)n3)ccc2F)nc1 [Example 174, 3-(6-{2-Fluoro-5-[3-(6-methylpyridin-2-yl)-1H-pyrazol-4-yl]phenyl}pyridin-3-yl)pentan-3-ol] | 94 to 95
7 | Cc1cccc(-c2n[nH]cc2-c2ccc(F)c(-c3cnn(CCN4CCOCC4)c3)c2)n1 [Example 175, 4-[2-(4-{2-Fluoro-5-[3-(6-methylpyridin-2-yl)-1H-pyrazol-4-yl]phenyl}-1H-pyrazol-1-yl)ethyl]morpholine] | 124
8 | Cc1cccc(-c2n[nH]cc2-c2ccc(F)c(-c3csc(C(C)(C)O)n3)c2)n1 [Example 178, 2-(4-{2-Fluoro-5-[3-(6-methylpyridin-2-yl)-1H-pyrazol-4-yl]phenyl}-1,3-thiazol-2-yl)propan-2-ol] | 78 to 80
9 | Cc1cccc(-c2n[nH]cc2-c2ccc(F)c(-c3csc(CO)n3)c2)n1 [Example 182, (4-{2-Fluoro-5-[3-(6-methylpyridin-2-yl)-1H-pyrazol-4-yl]phenyl}-1,3-thiazol-2-yl)methanol] | 89 to 92
10 | Cc1cccc(-c2n[nH]cc2-c2ccc(F)c(-c3ncc(C(C)(C)O)cn3)c2)n1 [Example 183, 2-(2-{2-Fluoro-5-[3-(6-methylpyridin-2-yl)-1H-pyrazol-4-yl]phenyl}pyrimidin-5-yl)propan-2-ol] | 162
11 | Cc1cccc(-c2n[nH]cc2-c2ccc(F)c(-c3cn(CCN4CCOCC4)cn3)c2)n1 [Example 185, 4-[2-(4-{2-Fluoro-5-[3-(6-methylpyridin-2-yl)-1H-pyrazol-4-yl]phenyl}-1H-imidazol-1-yl)ethyl]morpholine] | 144 to 145
12 | Cc1cccc(-c2n[nH]cc2-c2ccc(F)c(-c3cn(CCN(C)C)cn3)c2)n1 [Example 186, 2-(4-{2-Fluoro-5-[3-(6-methylpyridin-2-yl)-1H-pyrazol-4-yl]phenyl}-1H-imidazol-1-yl)-N,N-dimethylethylamine] | 130 to 131
13 | Cc1cccc(-c2n[nH]cc2-c2ccc(F)c(-c3ccc(N4CCN(C)CC4)nc3)c2)n1 [Example 187, 1-(5-{2-Fluoro-5-[3-(6-methylpyridin-2-yl)-1H-pyrazol-4-yl]phenyl}pyridin-2-yl)-4-methylpiperazine] | 86
14 | Cc1cccc(-c2n[nH]cc2-c2ccc(F)c(-c3ccc(N4CCN(C)CC4)cn3)c2)n1 [Example 188, 1-(6-{2-Fluoro-5-[3-(6-methylpyridin-2-yl)-1H-pyrazol-4-yl]phenyl}pyridin-3-yl)-4-methylpiperazine] | 97
15 | Cc1cccc(-c2n[nH]cc2-c2ccc(F)c(-c3ccc(NC(=O)NN4CCOCC4)cc3)c2)n1 [Example 192, N-{2′-Fluoro-5′-[3-(6-methylpyridin-2-yl)-1H-pyrazol-4-yl]-1,1′-biphenyl-4-yl}-N′-morpholine-4-ylurea] | 131 to 133
16 | Cc1cccc(-c2n[nH]cc2-c2ccc(F)c(-c3ccc[nH]3)c2)n1 [Example 193, 2-{4-[4-Fluoro-3-(1H-pyrrol-2-yl)phenyl]-1H-pyrazol-3-yl}-6-methylpyridine] | 141 to 142

Further lines, results first:

Row | melting point [°C] | SMILES
17 | 119 to 121 | Cc1cccc(-c2n[nH]cc2-c2ccc(F)c(-c3ccc(S(N)(=O)=O)c(F)c3)c2)n1 [Example 147, 2′,3-Difluoro-5′-[3-(6-methylpyridin-2-yl)-1H-pyrazol-4-yl]-1,1′-biphenyl-4-sulfonamide]
18 | 104 to 109 | Cc1cccc(-c2n[nH]cc2-c2ccc(F)c(-c3ccc(O)c(S(N)(=O)=O)c3)c2)n1 [Example 148, 2′-Fluoro-4-hydroxy-5′-[3-(6-methylpyridin-2-yl)-1H-pyrazol-4-yl]-1,1′-biphenyl-3-sulfonamide]
19 | 122 to 125 | Cc1cccc(-c2n[nH]cc2-c2ccc(F)c(-c3cc(F)c(S(N)(=O)=O)cc3F)c2)n1 [Example 149, 2,2′,5-Trifluoro-5′-[3-(6-methylpyridin-2-yl)-1H-pyrazol-4-yl]-1,1′-biphenyl-4-sulfonamide]
20 | 107 to 110 | Cc1cccc(-c2n[nH]cc2-c2ccc(F)c(-c3ccc(S(N)(=O)=O)c(C(F)(F)F)c3)c2)n1 [Example 152, 2′-Fluoro-5′-[3-(6-methylpyridin-2-yl)-1H-pyrazol-4-yl]-3-(trifluoromethyl)-1,1′-biphenyl-4-sulfonamide]
21 | 81 to 84 | Cc1cccc(-c2n[nH]cc2-c2ccc(F)c(-c3ccc(S(=O)(=O)C(F)(F)F)cc3)c2)n1 [Example 168, 2-(4-{6-Fluoro-4′-[(trifluoromethyl)sulfonyl]-1,1′-biphenyl-3-yl}-1H-pyrazol-3-yl)-6-methylpyridine]
22 | 150 to 152 | Cc1cccc(-c2n[nH]cc2-c2ccc(F)c(-c3ccc(SCCO)cc3)c2)n1 [Example 169, 2-({2′-Fluoro-5′-[3-(6-methylpyridin-2-yl)-1H-pyrazol-4-yl]-1,1′-biphenyl-4-yl}thio)ethanol]
23 | 88 to 90 | Cc1cccc(-c2n[nH]cc2-c2ccc(F)c(-c3ccc(S(=O)(=O)CCO)cc3)c2)n1 [Example 170, 2-({2′-Fluoro-5′-[3-(6-methylpyridin-2-yl)-1H-pyrazol-4-yl]-1,1′-biphenyl-4-yl}sulfonyl)ethanol]
24 | 80 to 82 | Cc1cccc(-c2n[nH]cc2-c2ccc(F)c(-c3ccc(S(=O)(=O)C(F)F)cc3)c2)n1 [Example 171, 2-(4-{4′-[(Difluoromethyl)sulfonyl]-6-fluoro-1,1′-biphenyl-3-yl}-1H-pyrazol-3-yl)-6-methylpyridine]
25 | 100 to 102 | Cc1cccc(-c2n[nH]cc2-c2ccc(F)c(-c3ccc(S(C)(=O)=O)cc3)c2)n1 [Example 191, 2-{4-[6-Fluoro-4′-(methylsulfonyl)-1,1′-biphenyl-3-yl]-1H-pyrazol-3-yl}-6-methylpyridine]
